Reference: article PMC11795524, “Melanin-Binding-Based Discovery of Topically Instilled Carbonic Anhydrase Inhibitors for Targeted Delivery and Prolonged Action in the Eye” (Molecular Pharmaceutics, 2025)
Values joined by “and” are separate entries in the source; they are usually repeats but may differ in a detail not shown here. Identical values can stand only once.

Assay: Ocular pharmacokinetics in pigmented rats (iris-ciliary body, 3H-A01)
Assay type: in vivo, rat
Settings: for bound fraction: pigmented tissue
Text: Eight albino rats (RccHan/Wist) and 18 pigmented rats (HsdOla/LH) were obtained from Envigo Laboratories B.V. (The Netherlands) and were used in pharmacokinetic experiments. Additional 13 albino and 13 pigmented rats were used in generation of the analytical standards. Young adult (3–4 months; 340–445 g) rats were used.
To conduct the pharmacokinetic study, bromo-containing CAI A15 (molecular structure presented in Table 1) was conveniently converted into [^3H]-A01 through catalytic dehalogenation in tritium gas. A15 (3.05 mg, 8.2 μmol) was dissolved in dimethylformamide (0.3 mL) and exposed to 99 mbar of tritium gas in a tritium manifold system for 1.5 h in the presence of 10% palladium on carbon (0.57 mg). Following filtration, the reaction mixture underwent double lyophilization with 1 mL ethanol to eliminate labile tritium. […] The crude material was purified via high-performance liquid chromatography, employing a Reprosil-Pur C18-HD column (250 × 10 mm, 5 μm), with a mobile phase comprising 40% acetonitrile in 50 mM ammonium hydrogen carbonate. Purified fractions were subsequently combined, subjected to solid-phase extraction, and eluted with ethanol. Radiochemical analysis indicated a purity exceeding 97%, with a molar activity of 0.29 TBq/mmol (7.9 Ci/mmol) and a total activity of 850 MBq (23 mCi). The solution of 1% A01 (10 mg/mL) was prepared similarly as in the IOP study (see Table 1) except that the solution contained also 72 μg/mL of [^3H]–A01 (specific activity 27.21 mCi/mg). The solution was prepared freshly for each experiment.
Seven μL of A01 solution (10 mg/mL including 72 μg/mL of ^3H–A01) was topically applied to both eyes of albino and pigmented rats. Rats were euthanized with carbon dioxide and cervical dislocation. The eyes (n = 4) of albino rats were collected 0.5, 2, 4, and 7 h after treatment. The eyes of pigmented rats were dissected 0.5, 2, 4, 7, 24, 48, 72, 144, and 240 h after eye drop instillation. The eyes were enucleated and dissected immediately after euthanasia. Iris-ciliary body was dissected, snap frozen on dry ice, and stored at −80 °C until analysis. The analyses were conducted within 24 h from tissue dissection.
Bound and unbound radioactivity of tritiated A01 was determined from dissected iris-ciliary body samples. First, the tissues were mechanically homogenized and diluted with 0.9% sodium chloride (weight ratio 35:1). Then, cellular unbound A01 was released from the iris-ciliary body cells by freezing and thawing the solutions three times with dry ice and a water bath (37 °C). Thereafter, the supernatant and pellet were separated by centrifuging the samples for 10 min at 13,000 rpm. The pellets were dissolved by using 60 min incubation in 100 μL of Solvable (PerkinElmer, Waltham, MA, USA). The samples were then bleached with 10 μL of hydrogen peroxide for 30 min. The pellet volume was calculated as the difference between the total and supernatant volumes.
After subtracting the background radioactivity, the measured net counts per minute (cpm) were converted to disintegrations per minute (dpm) taking into account color quenching and device efficiency. Standard curves were generated for each matrix (albino and pigmented supernatants and pellets; Appendix Figure 1). Finally, unbound, bound, and total A01 concentrations (ng/mg) in the iris-ciliary body of the […] were calculated using radioactivity (nCi) per μg of instilled A01 in the eye drops. Signal to noise ratios of measured pellet and supernatant samples in liquid scintillation counting are shown in Appendix Table 3.

[1] = iris-ciliary body, single topical eye drop

In the case of `C/C(=N\Nc1ccc(S(N)(=O)=O)cc1)c1cccnc1` [A01], the concentration at 2 h (HsdOla/LH (pigmented), rat, topical, 7 µL of 10 mg/mL solution per eye, pigmented iris-ciliary body, 2 h after administration, read-out: bound concentration at 2 h) is reported as roughly 500 ng/g, the concentration at 10 days (HsdOla/LH (pigmented), rat, topical, 7 µL of 10 mg/mL solution per eye, pigmented iris-ciliary body, 10 days, read-out: bound concentration C10 days) is reported as 20 ng/g and the “exposure ratio (AUCpigm/AUCalbino), bound A01” value (iris-ciliary body) is reported as 150 and 149.8. For the same compound, the “exposure ratio (AUCpigm/AUCalbino), total A01” value (iris-ciliary body) was 18, the “exposure ratio (AUCpigm/AUCalbino), unbound A01” value (iris-ciliary body) was 9.3 and the “AUC0-last in pigmented tissue, bound A01” value [1] was 12.73 (ng/mg) × h. The “AUC0-last in pigmented tissue, total A01” value [1] was 24.72 (ng/mg) × h, the “AUC0-last in pigmented tissue, unbound A01” value [1] was 11.98 (ng/mg) × h and the “tmax (bound drug)” value (pigmented eyes) was 24 h. For the same compound, the “tmax(total drug)” value (pigmented eyes) was 24 h, the “Cmax, total concentration” value (pigmented iris-ciliary body, at 24 h) was 0.36 ng/mg and the “time over which slow elimination continued” value (pigmented iris-ciliary body, total drug) was no less than 10 days. For the same compound, the “time over which unbound levels were extended” value (pigmented iris-ciliary body, below quantitation limit at 6 days) was “at least 3 days”, the unbound concentrations (pigmented rat iris-ciliary body) was 10 to 800 nM and the bound fraction (for 72 h) was 37–62%. The bound fraction (later than 72 h) was “about 90%”.
